Results taken from ChEMBL document CHEMBL5715954, “Silencing c-Myc translation as a therapeutic strategy through targeting PI3Kδ and CK1ε in hematological malignancies” (Blood, 2017).

Tests used:
Design in all cases: scale not given: the % may be the effect or the level left
[1] = target: Interleukin-1 receptor-associated kinase 1 (Homo sapiens) (UniProt P51617); experiment: Inhibition of human IRAK1 assessed as enzyme activity at 1 uM using myelin basic protein as substrate preincubated for 20 mins followed by [gamma-33P]-ATP addition and measured after 120 mins by radiometric Hot-SpotSM Kinase assay relative to control
Chain of Interleukin-1 receptor-associated kinase 1 (Homo sapiens) (P51617 whole entry, looked up): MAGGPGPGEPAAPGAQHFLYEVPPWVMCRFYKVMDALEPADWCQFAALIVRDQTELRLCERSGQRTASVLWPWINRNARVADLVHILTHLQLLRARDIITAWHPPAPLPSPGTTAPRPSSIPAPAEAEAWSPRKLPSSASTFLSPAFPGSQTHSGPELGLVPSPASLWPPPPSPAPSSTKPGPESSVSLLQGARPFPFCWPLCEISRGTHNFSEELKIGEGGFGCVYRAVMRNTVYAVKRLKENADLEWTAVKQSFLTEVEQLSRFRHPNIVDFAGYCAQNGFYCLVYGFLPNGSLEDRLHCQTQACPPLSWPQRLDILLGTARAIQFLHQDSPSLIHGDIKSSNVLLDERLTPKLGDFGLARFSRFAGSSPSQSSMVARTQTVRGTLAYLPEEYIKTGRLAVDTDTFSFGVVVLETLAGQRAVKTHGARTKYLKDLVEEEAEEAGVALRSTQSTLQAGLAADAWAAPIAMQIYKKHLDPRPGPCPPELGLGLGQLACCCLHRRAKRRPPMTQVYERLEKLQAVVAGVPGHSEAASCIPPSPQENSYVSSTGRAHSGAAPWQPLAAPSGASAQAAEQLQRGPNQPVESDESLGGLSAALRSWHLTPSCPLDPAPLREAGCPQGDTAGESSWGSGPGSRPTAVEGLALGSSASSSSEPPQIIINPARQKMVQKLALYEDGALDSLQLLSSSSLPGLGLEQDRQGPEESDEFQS

[2] = target: T1, Tyrosine-protein kinase ITK/TSK (Homo sapiens) (UniProt Q08881); experiment: Inhibition of human ITK assessed as enzyme activity at 1 uM using myelin basic protein as substrate preincubated for 20 mins followed by [gamma-33P]-ATP addition and measured after 120 mins by radiometric Hot-SpotSM Kinase assay relative to control
T1 sequence (whole entry): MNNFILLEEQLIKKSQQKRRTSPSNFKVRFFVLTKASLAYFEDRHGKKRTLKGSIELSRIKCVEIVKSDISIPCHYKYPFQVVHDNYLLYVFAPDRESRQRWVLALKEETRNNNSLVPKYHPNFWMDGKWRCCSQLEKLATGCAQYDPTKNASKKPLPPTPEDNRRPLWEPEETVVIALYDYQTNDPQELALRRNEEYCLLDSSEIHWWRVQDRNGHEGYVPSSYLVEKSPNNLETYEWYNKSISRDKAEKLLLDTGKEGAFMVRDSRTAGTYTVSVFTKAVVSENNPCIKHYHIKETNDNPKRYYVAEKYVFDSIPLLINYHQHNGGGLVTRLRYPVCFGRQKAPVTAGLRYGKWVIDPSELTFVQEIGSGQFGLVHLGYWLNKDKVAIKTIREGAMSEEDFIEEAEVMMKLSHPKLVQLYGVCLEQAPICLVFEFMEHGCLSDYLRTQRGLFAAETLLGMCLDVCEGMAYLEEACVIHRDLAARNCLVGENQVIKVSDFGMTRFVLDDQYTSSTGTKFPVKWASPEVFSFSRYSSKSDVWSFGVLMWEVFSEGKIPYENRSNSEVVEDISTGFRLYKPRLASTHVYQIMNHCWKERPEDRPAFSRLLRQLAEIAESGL

[3] = target: MAP kinase-activated protein kinase 2 (Homo sapiens) (UniProt P49137); experiment: Inhibition of human MAPKAPK2 assessed as enzyme activity at 1 uM using KKLNRTLSVA as substrate preincubated for 20 mins followed by [gamma-33P]-ATP addition and measured after 120 mins by radiometric Hot-SpotSM Kinase assay relative to control
Chain of MAP kinase-activated protein kinase 2 (Homo sapiens) (P49137 whole entry, looked up): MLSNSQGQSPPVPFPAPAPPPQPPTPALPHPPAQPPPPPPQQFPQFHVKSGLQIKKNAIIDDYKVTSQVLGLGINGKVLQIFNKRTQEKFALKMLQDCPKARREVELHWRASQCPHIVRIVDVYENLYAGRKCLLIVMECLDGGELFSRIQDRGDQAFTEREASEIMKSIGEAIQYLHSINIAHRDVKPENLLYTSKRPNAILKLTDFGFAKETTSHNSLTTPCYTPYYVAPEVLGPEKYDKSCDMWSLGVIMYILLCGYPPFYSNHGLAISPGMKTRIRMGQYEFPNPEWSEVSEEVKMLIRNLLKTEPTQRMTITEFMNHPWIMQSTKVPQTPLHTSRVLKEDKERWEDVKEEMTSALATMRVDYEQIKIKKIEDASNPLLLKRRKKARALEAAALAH

[4] = target: Mitogen-activated protein kinase 11 (Homo sapiens) (UniProt Q15759); experiment: Inhibition of human P38b assessed as enzyme activity at 1 uM using myelin basic protein as substrate preincubated for 20 mins followed by [gamma-33P]-ATP addition and measured after 120 mins by radiometric Hot-SpotSM Kinase assay relative to control
Chain of Mitogen-activated protein kinase 11 (Homo sapiens) (Q15759 whole entry): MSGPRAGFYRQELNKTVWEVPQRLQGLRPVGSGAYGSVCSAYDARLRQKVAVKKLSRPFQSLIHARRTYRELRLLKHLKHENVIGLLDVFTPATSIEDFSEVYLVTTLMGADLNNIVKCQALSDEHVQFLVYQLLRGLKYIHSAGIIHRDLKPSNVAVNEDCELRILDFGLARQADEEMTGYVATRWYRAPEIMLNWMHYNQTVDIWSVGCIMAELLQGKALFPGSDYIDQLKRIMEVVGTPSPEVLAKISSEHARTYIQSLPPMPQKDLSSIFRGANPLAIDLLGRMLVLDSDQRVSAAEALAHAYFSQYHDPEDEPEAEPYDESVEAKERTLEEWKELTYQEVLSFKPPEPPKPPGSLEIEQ

[5] = target: Serine/threonine-protein kinase pim-1 (Homo sapiens) (UniProt P11309); experiment: Inhibition of human PIM1 assessed as enzyme activity at 1 uM using RSRHSSYPAGT as substrate preincubated for 20 mins followed by [gamma-33P]-ATP addition and measured after 120 mins by radiometric Hot-SpotSM Kinase assay relative to control
Chain of Serine/threonine-protein kinase pim-1 (Homo sapiens) (P11309 whole entry, looked up): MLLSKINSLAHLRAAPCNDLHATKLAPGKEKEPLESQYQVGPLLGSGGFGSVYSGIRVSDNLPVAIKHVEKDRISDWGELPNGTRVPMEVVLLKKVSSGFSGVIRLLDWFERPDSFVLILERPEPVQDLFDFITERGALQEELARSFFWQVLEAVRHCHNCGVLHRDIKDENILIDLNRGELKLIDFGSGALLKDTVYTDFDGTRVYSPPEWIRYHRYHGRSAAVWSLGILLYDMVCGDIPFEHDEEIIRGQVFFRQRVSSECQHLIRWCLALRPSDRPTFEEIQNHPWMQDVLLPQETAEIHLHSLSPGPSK

[6] = target: T2, Serine/threonine-protein kinase Sgk1 (Homo sapiens) (UniProt O00141); experiment: Inhibition of human SGK1 assessed as enzyme activity at 1 uM using KGSGSGRPRTSSFAEG as substrate preincubated for 20 mins followed by [gamma-33P]-ATP addition and measured after 120 mins by radiometric Hot-SpotSM Kinase assay relative to control
T2 sequence (whole entry): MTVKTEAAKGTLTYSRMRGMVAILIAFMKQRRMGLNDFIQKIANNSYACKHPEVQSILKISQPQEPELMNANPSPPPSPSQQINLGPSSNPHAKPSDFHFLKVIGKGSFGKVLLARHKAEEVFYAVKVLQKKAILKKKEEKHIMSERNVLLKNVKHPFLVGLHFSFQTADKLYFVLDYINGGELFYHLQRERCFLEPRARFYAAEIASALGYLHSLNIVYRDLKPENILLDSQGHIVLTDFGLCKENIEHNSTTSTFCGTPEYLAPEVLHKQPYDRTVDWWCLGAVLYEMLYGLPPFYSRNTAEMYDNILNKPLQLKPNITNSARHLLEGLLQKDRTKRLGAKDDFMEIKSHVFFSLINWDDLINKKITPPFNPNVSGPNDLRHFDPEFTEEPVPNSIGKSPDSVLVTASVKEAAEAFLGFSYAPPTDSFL

[7] = target: Dual specificity testis-specific protein kinase 1 (Homo sapiens) (UniProt Q15569); experiment: Inhibition of human TESK1 assessed as enzyme activity at 1 uM using cofilin 2 as substrate preincubated for 20 mins followed by [gamma-33P]-ATP addition and measured after 120 mins by radiometric Hot-SpotSM Kinase assay relative to control
Chain of Dual specificity testis-specific protein kinase 1 (Homo sapiens) (Q15569 whole entry, looked up): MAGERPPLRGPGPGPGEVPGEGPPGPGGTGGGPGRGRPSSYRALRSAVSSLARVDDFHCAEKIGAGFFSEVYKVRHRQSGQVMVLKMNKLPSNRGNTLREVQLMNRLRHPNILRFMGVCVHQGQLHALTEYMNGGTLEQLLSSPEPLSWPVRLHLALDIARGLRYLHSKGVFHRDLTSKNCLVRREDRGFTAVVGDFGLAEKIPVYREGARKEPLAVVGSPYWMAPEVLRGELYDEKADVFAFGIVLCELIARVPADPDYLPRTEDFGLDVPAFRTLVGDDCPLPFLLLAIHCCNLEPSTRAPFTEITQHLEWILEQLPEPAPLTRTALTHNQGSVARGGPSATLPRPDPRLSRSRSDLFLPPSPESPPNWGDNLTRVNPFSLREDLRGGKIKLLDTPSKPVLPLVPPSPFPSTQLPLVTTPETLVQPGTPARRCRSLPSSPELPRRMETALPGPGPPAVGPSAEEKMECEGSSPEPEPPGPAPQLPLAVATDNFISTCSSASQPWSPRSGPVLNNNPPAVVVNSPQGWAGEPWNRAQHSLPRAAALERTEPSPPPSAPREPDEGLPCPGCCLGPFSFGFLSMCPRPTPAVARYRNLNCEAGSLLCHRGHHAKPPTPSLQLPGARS

[8] = target: Angiopoietin-1 receptor (Homo sapiens) (UniProt Q02763); experiment: Inhibition of human TIE2 assessed as enzyme activity at 1 uM using poly[Glu:Tyr] (4:1) as substrate preincubated for 20 mins followed by [gamma-33P]-ATP addition and measured after 120 mins by radiometric Hot-SpotSM Kinase assay relative to control
Chain of Angiopoietin-1 receptor (Homo sapiens) (Q02763 whole entry): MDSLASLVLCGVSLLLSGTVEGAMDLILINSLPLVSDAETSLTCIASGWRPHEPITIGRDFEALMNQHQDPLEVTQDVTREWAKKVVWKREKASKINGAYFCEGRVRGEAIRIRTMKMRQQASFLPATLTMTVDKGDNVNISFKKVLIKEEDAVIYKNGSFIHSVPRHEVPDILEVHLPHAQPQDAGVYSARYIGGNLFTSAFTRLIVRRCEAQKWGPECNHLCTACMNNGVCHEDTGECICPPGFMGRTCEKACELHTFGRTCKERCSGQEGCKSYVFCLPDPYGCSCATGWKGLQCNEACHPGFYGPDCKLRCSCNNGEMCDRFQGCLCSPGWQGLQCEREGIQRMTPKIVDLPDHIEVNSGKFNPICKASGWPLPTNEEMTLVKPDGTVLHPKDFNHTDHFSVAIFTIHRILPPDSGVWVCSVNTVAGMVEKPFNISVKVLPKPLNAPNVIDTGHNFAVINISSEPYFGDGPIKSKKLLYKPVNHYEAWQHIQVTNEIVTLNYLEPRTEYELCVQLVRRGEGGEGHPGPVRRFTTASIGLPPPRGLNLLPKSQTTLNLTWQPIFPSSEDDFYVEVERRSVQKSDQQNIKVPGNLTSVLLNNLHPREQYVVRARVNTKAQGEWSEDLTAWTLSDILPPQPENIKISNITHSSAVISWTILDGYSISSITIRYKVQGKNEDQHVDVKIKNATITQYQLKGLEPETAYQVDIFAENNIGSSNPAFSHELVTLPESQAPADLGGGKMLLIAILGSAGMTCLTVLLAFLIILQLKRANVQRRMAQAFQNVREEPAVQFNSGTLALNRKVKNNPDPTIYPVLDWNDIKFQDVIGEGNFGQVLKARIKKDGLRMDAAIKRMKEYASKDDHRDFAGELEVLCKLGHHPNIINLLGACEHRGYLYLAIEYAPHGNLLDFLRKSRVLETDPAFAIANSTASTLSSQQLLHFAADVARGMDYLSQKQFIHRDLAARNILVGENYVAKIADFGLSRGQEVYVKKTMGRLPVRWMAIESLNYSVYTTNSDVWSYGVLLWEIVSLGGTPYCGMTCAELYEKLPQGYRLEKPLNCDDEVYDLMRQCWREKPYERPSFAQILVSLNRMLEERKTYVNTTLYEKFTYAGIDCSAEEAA

[9] = target: T3, Non-receptor tyrosine-protein kinase TNK1 (Homo sapiens) (UniProt Q13470); experiment: Inhibition of human TNK1 assessed as enzyme activity at 1 uM using poly[Glu:Tyr] (4:1) as substrate preincubated for 20 mins followed by [gamma-33P]-ATP addition and measured after 120 mins by radiometric Hot-SpotSM Kinase assay relative to control
T3 sequence (whole entry): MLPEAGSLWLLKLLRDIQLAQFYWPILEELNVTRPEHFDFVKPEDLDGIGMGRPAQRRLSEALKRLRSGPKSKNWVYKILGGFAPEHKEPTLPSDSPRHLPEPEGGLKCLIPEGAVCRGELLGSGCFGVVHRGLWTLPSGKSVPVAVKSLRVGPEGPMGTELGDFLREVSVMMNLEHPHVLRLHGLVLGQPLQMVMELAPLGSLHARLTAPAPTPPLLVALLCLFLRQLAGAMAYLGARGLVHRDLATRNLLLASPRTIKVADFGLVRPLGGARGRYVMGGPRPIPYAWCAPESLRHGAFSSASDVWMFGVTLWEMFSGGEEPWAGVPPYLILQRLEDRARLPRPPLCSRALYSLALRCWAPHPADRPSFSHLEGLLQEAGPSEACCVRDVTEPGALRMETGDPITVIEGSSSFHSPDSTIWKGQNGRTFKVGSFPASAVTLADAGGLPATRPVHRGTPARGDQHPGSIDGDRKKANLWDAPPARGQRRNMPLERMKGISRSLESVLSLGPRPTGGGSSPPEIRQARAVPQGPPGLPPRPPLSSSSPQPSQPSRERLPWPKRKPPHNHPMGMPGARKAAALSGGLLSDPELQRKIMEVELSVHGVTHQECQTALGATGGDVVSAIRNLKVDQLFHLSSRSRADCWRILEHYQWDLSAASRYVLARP

[10] = target: High affinity nerve growth factor receptor (Homo sapiens) (UniProt P04629); experiment: Inhibition of human TRKA assessed as enzyme activity at 1 uM using poly[Glu:Tyr] (4:1) as substrate preincubated for 20 mins followed by [gamma-33P]-ATP addition and measured after 120 mins by radiometric Hot-SpotSM Kinase assay relative to control
Chain of High affinity nerve growth factor receptor (Homo sapiens) (P04629 33-796 limits assumed): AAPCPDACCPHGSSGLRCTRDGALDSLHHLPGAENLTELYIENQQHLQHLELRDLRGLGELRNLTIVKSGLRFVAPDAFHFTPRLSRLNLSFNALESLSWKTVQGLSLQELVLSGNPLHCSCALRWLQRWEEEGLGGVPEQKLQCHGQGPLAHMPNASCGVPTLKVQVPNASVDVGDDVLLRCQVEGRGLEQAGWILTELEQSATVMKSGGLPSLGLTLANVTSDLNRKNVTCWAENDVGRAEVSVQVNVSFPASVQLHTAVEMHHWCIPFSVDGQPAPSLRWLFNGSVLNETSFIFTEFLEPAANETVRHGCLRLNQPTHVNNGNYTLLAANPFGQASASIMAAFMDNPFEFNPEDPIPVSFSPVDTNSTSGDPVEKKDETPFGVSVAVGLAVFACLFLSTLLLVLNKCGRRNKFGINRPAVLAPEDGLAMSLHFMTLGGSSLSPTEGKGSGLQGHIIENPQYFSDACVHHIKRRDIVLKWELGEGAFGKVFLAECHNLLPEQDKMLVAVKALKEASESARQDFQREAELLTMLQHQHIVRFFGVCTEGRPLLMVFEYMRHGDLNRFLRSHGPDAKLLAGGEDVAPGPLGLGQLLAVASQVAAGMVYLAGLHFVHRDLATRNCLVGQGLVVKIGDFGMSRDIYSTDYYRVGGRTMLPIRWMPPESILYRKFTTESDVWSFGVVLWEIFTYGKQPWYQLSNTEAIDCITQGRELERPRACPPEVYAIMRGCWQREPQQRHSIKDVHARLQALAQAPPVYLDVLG

CC[C@H](Nc1ncnc2[nH]cnc12)c1nc2cccc(F)c2c(=O)n1-c1ccccc1
Activity [1]: 106%
Activity [2]: 102%
Activity [3]: 96.2%
Activity [4]: 94.8%
Activity [5]: 99.6%
Activity [6]: 105%
Activity [7]: 98.7%
Activity [8]: 97.9%
Activity [9]: 86.3%
Activity [10]: 91%

CC(C)Oc1ccc(-c2nn([C@@H](C)c3oc4ccc(F)cc4c(=O)c3-c3cccc(F)c3)c3ncnc(N)c23)cc1F [UMBRALISIB]
Activity [1]: 105%
Activity [2]: 97.3%
Activity [3]: 91.4%
Activity [4]: 89.3%
Activity [5]: 98.2%
Activity [6]: 102%
Activity [7]: 98%
Activity [8]: 92%
Activity [9]: 88.9%
Activity [10]: 89%

C[C@H](Nc1ncnc2nc[nH]c12)c1cc2cccc(Cl)c2c(=O)n1-c1ccccc1
Activity [1]: 102%
Activity [2]: 94.5%
Activity [3]: 96.5%
Activity [4]: 92.6%
Activity [5]: 99.6%
Activity [6]: 102%
Activity [7]: 102%
Activity [8]: 97.3%
Activity [9]: 87.5%
Activity [10]: 87.3%
